# Results published in US4060652A (priority 1976, dated 1977).
# Entries after “also recorded” stand apart in the source; their conditions may differ.
# Key:
# rabbits = assay: Head-drop test in non-narcotized rabbits; type: in vivo
# Description: In experiments (a total of twenty) on non-narcotized rabbits, the head-drop dose (HDD) was 0.022 ± 0.009 micromole/kg A complete blocking effect developed 1.5 to 2 minutes after administration of Tercuronium and persisted for 3 to 5 minutes. A few minutes later, the animal behaviour normalized. The same effect was attained with 0.18 ± 0.02 micromole/kg of α-tubocurarin (6 experiments) and 0.018 ± 0.001 mcM/kg of pancuronium (6 experiments). The time of onset and the duration of the blocking effect with all the three preparations were the same.
# [1] = Lethality by paralysis of respiratory muscles in rabbits; details: rabbit, in vivo
# From the text: In another series of experiments, we determined the intravenous dose of the muscle relaxants that caused death of 50% of the animals due to paralysis of the respiratory muscles -- lethal dose 50% (LD50).
# [2] = system: ischio-gastrocnemius conduction; assay: Block of ischio-gastrocnemius conduction in narcotized rabbits; type: in vivo
# Description: In experiments on narcotized rabbits (chloralose, 50 mg/kg, and urethane, 500 mg/kg, given intravenously) the intravenous dose of Tercuronium that produced complete block of the ischio-gastrocnemius conduction was 0.025 ± 0.005 mcM/kg (five experiments).
# albino mice = assay: Inhibition of turning from the lateral position in mice; type: in vivo
# From the text: (§1) In experiments on albino mice, the dose of Tercuronium injected into the tail vein, that inhibited the symptom of turning from the lateral position in 50 percent of mice (ED50) was 0.06 mcM/kg (18 experiments); and 50 percent of mice perished from paralysis of the respiratory muscles (LD50) following an injection of 0.09 mcM/kg of Tercuronium.
# [3] = Lethality by paralysis of respiratory muscles in mice; details: mouse, in vivo, iv
# From the text: as §1
# [4] = system: straight muscles of the frog abdomen; assay: Isolated straight muscle of frog abdomen, antagonism of acetylcholine; parameters: species or system frog (Rana tempraria)
# From the text: In experiments on isolated straight muscles of the frog abdomen (Rana tempraria) the concentration of Tercuronium, that weakened the action acetylcholine, was 2.0 ± 0.04 × × 10^-7 m/l.
# [5] = Effect on sympathetic ganglia, third eyelid contraction in cats; type: in vivo; details: cat, in vivo, iv, read-out: ganglioblocking dose as multiple of myoparalytic dose
# Description: (§2) Experiments were carried out on narcotized cats. A peripheral part of the sympathetic column on the neck was stimulated with electric pulses at 5 Hz. The duration of the stimulus was 1 msec, the amplitude 5 V. The contractions of the third eyelid (nictiating membrane) and the arterial (carotid) pressure were recorded with a mercury pressure gauge. We determined the intravenous dose of Tercuronium, α-tubocurarin and pancuronium that decreased the height of contraction of the third eyelid by 50 to 60 percent in conditions of prolonged stimulation of the sympathetic column.
# sympathetic ganglia = assay: as above; type: in vivo
# Description: as §2
# [6] = system: M-cholinoreceptors and conduction in parasympathetic ganglia; assay: Effect on M-cholinoreceptors and parasympathetic ganglia, n. vagus stimulation in cats; type: in vivo
# Description: Experiments were carried out on narcotized cats (chloralose and urethane, intraperitoneally).
# In experiments on five animals, the left nervus vagus was cut. Platinum electrodes were placed on the peripherial part to stimulate the nerve with pulses of 0.1 msec and an amplitude of 5 V. The nerve was stimulated every 10 seconds at a frequency of 30 Hz. The pulse rate was recorded (ECG) and the blood pressure in the femoral artery was measured with a mercury pressure gauge.
# [7] = system: nervomuscular conduction and arterial pressure; assay: Effect of narcotics on action in decerebrated cats; type: in vivo
# From the text: The action of ether, fluorothane, and sodium thiopental (given in narcotic concentrations) on the nervomuscular blocking activity and depressive effect (action on the arterial pressure) of Tercuronium, as well as on the neostigmin-Tercuronium antagonism was studied on decerebrated cats.
# patients = assay: Surgical operations, first series (maintenance of relaxation); type: in vivo, patients (human)
# Description: We tried Tercuronium as a muscle relaxant in surgical operations on the abdominal and thoracic organs in 150 patients. The operations were carried out in conditions of intubation narcosis and artificial lung ventilation. Ether, fluorothane, nitrous oxide and barbiturates were used as anesthetics.
# In the first series of observations (120 operations) Tercuronium was used as the main muscle relaxant for maintaining relaxation of the muscles. Tracheal intubation was carried out with muscle relaxation induced by dithilin-group agents. […] Complete muscle relaxation with the absence of active respiration continued on an average of 40 minutes. If, with the first signs of restoration of the muscle tone, we made another intravenous injection of Tercuronium in a dose constituting 1/3 to 1/2 of the initial one, complete relaxation continued for further 60 - 90 minutes.
# [8] = Solubility, stability and pH; type: physicochemical; details: for stability on exposure to air: solid
# Description: The active principle of Tercuronium, viz., p,p"-bis-triethylammonio-n-terphenyl dibenzenesulphonate having the structure [drawing 1] is a new compound that has not been described in literature. […] A 0.0012 percent solution of the active principle in a 0.01 N solution of hydrochloric acid has a specific absorption spectrum in the U-V region, with a maximum at 285 ± 2 nm and a minimum at 237 ± 1 nm.
# Distilled water should contain a stabilizing agent, namely 3 ml of a 0.1 N solution of HCl per liter of water. The solution is stirred, filtered, and filled into 1-ml ampoules made of neutral glass. The ampoules are sterilized with steam at a temperature of 100° C for thirty minutes. The pH of the solution after sterilization is 3.7 (determined potentiometrically).
# [9] = system: nervomuscular conduction, vegetative ganglia, circulation; assay: Overall conclusions from animal experiments; type: in vivo, animals
# From the text: The results of the pharmacological studies of the proposed muscle relaxant Tercuronium, as compared with the known muscle relaxants, enable us to make the following conclusions.
# [10] = deep fluorothane-induced anesthesia
# [11] = ether, fluorothane, sodium thiopental
compound,measurement,setting,value
"CC[N+](CC)(CC)c1ccc(-c2ccc(-c3ccc([N+](CC)(CC)CC)cc3)cc2)cc1 [Tercuronium, p,p""-bis-triethylammonio-n-terphenyl dibenzenesulphonate]",ED (head drop),"rabbits; Oryctolagus cuniculus, read-out: head-drop dose (HDD)",0.022 ± 0.009 µmol/kg
same,"time of onset and duration of blocking effect, comparison",rabbits; all three preparations,the same
same,blocking effect compared with pancuronium,rabbits; rabbits,somewhat lower than that of pancuronium
same,blocking effect relative to α-tubocurarin,rabbits; rabbits,eight
same,LD50,[1]; intravenous,0.03 µmol/kg
same,selectivity ratio,[1]; read-out: LD50 to HDD ratio,1.4
same,ED100,"[2]; Oryctolagus cuniculus, narcotized rabbits, intravenous, five experiments, read-out: dose producing complete block of ischio-gastrocnemius conduction",0.025 ± 0.005 µmol/kg
same,restoration of muscle contraction by neostigmin,[2]; neostigmin 0.1 mg/kg during complete block,always resulted in immediate and full restoration of the muscle contraction
same,ED50,"albino mice; Mus musculus, iv",0.06 µmol/kg
same,myoparalytic action compared with pancuronium and α-tubocurarin,albino mice; mice,several times lower than that of pancuronium and several times higher than that of α-tubocurarin
same,LD50,[3],0.09 µmol/kg
same,selectivity ratio,[3]; read-out: width of the muscle relaxing action (LD50/ED50),1.5
same,contractions produced in the muscle,[4],did not produce contractions in the muscle
same,selectivity ratio,[5],10 to 15
same,arterial pressure at ganglioblocking dose,sympathetic ganglia,the arterial pressure dropped as well
same,response of n. vagus to stimulation,[6]; 0.1 and 1.0 mcM/kg,the response of n. vagus to stimulation did not change
same,heart contractility without stimulation of n. vagus,[6]; 0.1 and 1.0 mcM/kg intravenous,heart contractility was not affected
same,effect on parasympathetic part of the vegetative nerve system,[6]; 20 times the myoparalytic dose,does not produce any effect on the parasympathetic part of the vegetative nerve system
same,bronchospasm or salivation,"[6]; very large dose, other experiments on animals",no bronchospasm or salivation were observed
same,interaction with fluorothane on blood pressure,[7]; decerebrated cats,did not observe mutual strengthening of fluorothane and Tercuronium action on blood pressure
same,action on arterial pressure in ether narcosis,[7]; deep ether-induced narcosis,did not substantially change
same,depressive effect in fluorothane anesthesia,[7]; [10],failed to increase
same,myoparalytic effect in fluorothane anesthesia,[7]; [10],intensified insignificantly
same,compatibility with anesthetic agents,[7]; [11],"quite compatible with anesthetic agents such as ether, fluorothane, and sodium thiopental"
same,neostigmin antagonism against background of narcotics,[7]; [11],persisted against the back ground of narcotics; also recorded: fully preserved
same,curare-like activity and action on blood pressure with sodium thiopental,[7]; sodium thiopental 10 mg/kg,did not change
same,arterial pressure and frequency of heart contractions,patients; 0.12 - 0.15 mg/kg,"No changes in arterial pressure ar frequency of heart contractions, that could be attributed to the injection of Tercuronium, were observed"
same,duration of complete muscle relaxation with absence of active respiration,"patients; 0.12 - 0.15 mg/kg intravenous, average",40 min
same,electromyographic character of action,patients; electromyographic analysis,nondepolarizing muscle relaxant
same,postoperative complications,patients; postoperative period,"did not observe any case of insufficient efficacy of proserpin, muscular atomia, or insufficiency of active respiration, or recurarization"
same,restoration of active respiration by proserpin,patients; proserpin 2.5 mg at end of operation,always resulted in quick (within a few minutes) restoration of active respiration in full volume
same,solubility in water,[8],readily soluble in water
same,stability on exposure to air,[8],slightly green when exposed to air
same,stability on exposure to air,"[8]; listed as p,p""-bis-triethylammonio-p-terphenyl",becomes slightly green on exposture to air
same,stability of aqueous solution,[8]; stabilizer 3 ml of 0.1 N HCl per liter of water,stable in the presence of a stabilizer
same,blood pressure at ten-fold dose,"[9]; cats, ten-fold dose",only slightly reduced
same,nervomuscular blocking activity compared with pancuronium,[9]; experiments on animals,somewhat lower than of pancuronium
same,"histamine, vegetative ganglia, blood pressure and heart frequency",[9]; myoparalytic dose,"does not produce histamine, does not block vegetative ganglia or affect the blood pressure and frequency of heart contractions"
same,frequency of heart contraction,[9]; ten times the myoparalytic dose,does not affect the frequency of heart contraction
